Reference: the supplement of paper PMC11208160

experiment: recombinant UMI read abundance after kanamycin selection (control-corrected) (log10(CPM+1)); higher = more efficient recombination; extreme values may be limits of the assay; sequences stand for … in AGTGCAGAGAAAATCGGCCAGTTTTCTCTGCCTGCAGTCCGCATGCCGTGGGACCCCTTGGGTTCTAACCTGTTGCCTAGATTTATGCAGCGGACTGCCTTTCTCCCAAAGTGATAAACCGG…AGGTTGGTTTCACT; site = the 11-nt donor
Procedure, shortened: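 The measure is log10(CPM+1) for recombinant UMIs. These were PCR-amplified across the donor–target junction and sequenced after Escherichia coli carrying a donor and donor-binding-loop pair library and a target plasmid with T7-inducible IS621 bridge recombinase was plated on IPTG (0.07 mM) plus kanamycin or unselected. CPM were averaged over two replicates and scaled by control-derived factors.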
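Also: IS621 bridge recombinase in Escherichia coli cells against a fixed T5 target plasmid.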

Point of comparison: “CACTTGGCATGGACCGGTTTTCCCGGTAATCCGTATTTGGA (site CACTTGCCTTC)”, “recombinant UMI read abundance (log10)” value 0.407. Against it:
- CACGGCCCATGGACCGGTTTTCCCGGTAATCCGTATTTGAT (site CACGGCCCTAG) — lower, 0
- CACGGCCCATGGACCGGTTTTCCCGGTAATCCGTATTTGAT (site CACGGCCCTAT) — within 0.2 log units, 0.255
- CACGGCCCATGGACCGGTTTTCCCGGTAATCCGTATTTGGT (site CACGGCCCTAA) — lower, 0.0236
- CACGGCCCATGGACCGGTTTTCCCGGTAATCCGTATTTGGT (site CACGGCCCTAC) — lower, 0.00703
- CACGGCCCATGGACCGGTTTTCCCGGTAATCCGTATTTGGT (site CACGGCCCTAG) — lower, 0
- CACGGCCCATGGACCGGTTTTCCCGGTAATCCGTATTTGGT (site CACGGCCCTAT) — within 0.2 log units, 0.456
- CACGGCCCATGGACCGGTTTTCCCGGTAATCCGTATTTGTA (site CACGGCCCTAA) — lower, 0.00609
- CACGGCCCATGGACCGGTTTTCCCGGTAATCCGTATTTGTA (site CACGGCCCTCA) — lower, 0.0202
- CACGGCCCATGGACCGGTTTTCCCGGTAATCCGTATTTGTA (site CACGGCCCTGA) — higher, 1.81
- CACGGCCCATGGACCGGTTTTCCCGGTAATCCGTATTTGTA (site CACGGCCCTTA) — within 0.2 log units, 0.29
- CACGGGCCATGGACCGGTTTTCCCGGTAATCCGTATTTGTT (site CACGGACCTAA) — lower, 0
- CACGGGCCATGGACCGGTTTTCCCGGTAATCCGTATTTGTT (site CACGGCCCTAA) — within 0.2 log units, 0.234
- CACGGGCCATGGACCGGTTTTCCCGGTAATCCGTATTTGTT (site CACGGGCCTAA) — within 0.2 log units, 0.574
- CACGGGCCATGGACCGGTTTTCCCGGTAATCCGTATTTGTT (site CACGGTCCTAA) — lower, 0.00819
- CACGGGTCATGGACCGGTTTTCCCGGTAATCCGTATTTGCT (site CACGGGTCTAG) — higher, 2.17
- CACGGTCCATGGACCGGTTTTCCCGGTAATCCGTATTTGAT (site CACGGTCCTAT) — higher, 0.938
- CACGGTTCATGGACCGGTTTTCCCGGTAATCCGTATTTGGG (site CACGGTTCTCC) — higher, 1.03
- CACGTACCATGGACCGGTTTTCCCGGTAATCCGTATTTGCA (site CACGTACCTTG) — lower, 0
- CACTACTCATGGACCGGTTTTCCCGGTAATCCGTATTTGTT (site CACTACTCTAA) — higher, 2.71
- CACTAGGCATGGACCGGTTTTCCCGGTAATCCGTATTTGTA (site CACTAGGCTTA) — higher, 1.42
- CACTATGCATGGACCGGTTTTCCCGGTAATCCGTATTTGAT (site CACTATGCTAT) — higher, 1.93
- CACTCAGCATGGACCGGTTTTCCCGGTAATCCGTATTTGCC (site CACTCAGCTGG) — higher, 2.5
- CACTCCACATGGACCGGTTTTCCCGGTAATCCGTATTTGCG (site CACTCCACTCG) — higher, 1.09
- CACTCGGCATGGACCGGTTTTCCCGGTAATCCGTATTTGGA (site CACTAGGCTTC) — within 0.2 log units, 0.232
- CACTCGGCATGGACCGGTTTTCCCGGTAATCCGTATTTGGA (site CACTCGGCTTC) — higher, 1.09
- CACTCGGCATGGACCGGTTTTCCCGGTAATCCGTATTTGGA (site CACTGGGCTTC) — lower, 0.201
- CACTCGGCATGGACCGGTTTTCCCGGTAATCCGTATTTGGA (site CACTTGGCTTC) — lower, 0.0193
- CACTCTTCATGGACCGGTTTTCCCGGTAATCCGTATTTGCC (site CACTCATCTGG) — higher, 1.6
- CACTCTTCATGGACCGGTTTTCCCGGTAATCCGTATTTGCC (site CACTCCTCTGG) — higher, 2.13
- CACTCTTCATGGACCGGTTTTCCCGGTAATCCGTATTTGCC (site CACTCGTCTGG) — lower, 0
- CACTCTTCATGGACCGGTTTTCCCGGTAATCCGTATTTGCC (site CACTCTTCTGG) — higher, 2.07
- CACTGTACATGGACCGGTTTTCCCGGTAATCCGTATTTGCG (site CACTGTACTCG) — higher, 1.83
- CACTTAGCATGGACCGGTTTTCCCGGTAATCCGTATTTGGA (site CACTTAGCTTC) — higher, 1.16
- CACTTAGCATGGACCGGTTTTCCCGGTAATCCGTATTTGGA (site CACTTCGCTTC) — lower, 0.00475
- CACTTAGCATGGACCGGTTTTCCCGGTAATCCGTATTTGGA (site CACTTGGCTTC) — lower, 0.0129
- CACTTAGCATGGACCGGTTTTCCCGGTAATCCGTATTTGGA (site CACTTTGCTTC) — lower, 0
- CACTTGCCATGGACCGGTTTTCCCGGTAATCCGTATTTGGA (site CACTTGACTTC) — lower, 0.0268
- CACTTGCCATGGACCGGTTTTCCCGGTAATCCGTATTTGGA (site CACTTGCCTTC) — lower, 0.021
- CACTTGCCATGGACCGGTTTTCCCGGTAATCCGTATTTGGA (site CACTTGGCTTC) — lower, 0.0247
- CACTTGCCATGGACCGGTTTTCCCGGTAATCCGTATTTGGA (site CACTTGTCTTC) — lower, 0.137
- CACTTGGCATGGACCGGTTTTCCCGGTAATCCGTATTTGGA (site AACTTGGCTTC) — lower, 0.00381
- CACTTGGCATGGACCGGTTTTCCCGGTAATCCGTATTTGGA (site CAATTGGCTTC) — within 0.2 log units, 0.432
- CACTTGGCATGGACCGGTTTTCCCGGTAATCCGTATTTGGA (site CACATGGCTTC) — lower, 0.0226
- CACTTGGCATGGACCGGTTTTCCCGGTAATCCGTATTTGGA (site CACCTGGCTTC) — higher, 0.612
- CACTTGGCATGGACCGGTTTTCCCGGTAATCCGTATTTGGA (site CACGTGGCTTC) — lower, 0.024
- CACTTGGCATGGACCGGTTTTCCCGGTAATCCGTATTTGGA (site CACTAGGCTTC) — lower, 0.104
- CACTTGGCATGGACCGGTTTTCCCGGTAATCCGTATTTGGA (site CACTCGGCTTC) — lower, 0.0123
- CACTTGGCATGGACCGGTTTTCCCGGTAATCCGTATTTGGA (site CACTGGGCTTC) — lower, 0.0362
- CACTTGGCATGGACCGGTTTTCCCGGTAATCCGTATTTGGA (site CACTTAGCTTC) — higher, 1.14
- CACTTGGCATGGACCGGTTTTCCCGGTAATCCGTATTTGGA (site CACTTCGCTTC) — lower, 0.0367
- CACTTGGCATGGACCGGTTTTCCCGGTAATCCGTATTTGGA (site CACTTGACTTC) — within 0.2 log units, 0.231
- CACTTGGCATGGACCGGTTTTCCCGGTAATCCGTATTTGGA (site CACTTGGCTAC) — lower, 0.013
- CACTTGGCATGGACCGGTTTTCCCGGTAATCCGTATTTGGA (site CACTTGGCTCC) — within 0.2 log units, 0.381
- CACTTGGCATGGACCGGTTTTCCCGGTAATCCGTATTTGGA (site CACTTGGCTGC) — higher, 0.96
- CACTTGGCATGGACCGGTTTTCCCGGTAATCCGTATTTGGA (site CACTTGGCTTA) — higher, 1.12
- CACTTGGCATGGACCGGTTTTCCCGGTAATCCGTATTTGGA (site CACTTGGCTTC) — higher, 0.91
- CACTTGGCATGGACCGGTTTTCCCGGTAATCCGTATTTGGA (site CACTTGGCTTG) — higher, 0.926
- CACTTGGCATGGACCGGTTTTCCCGGTAATCCGTATTTGGA (site CACTTGGCTTT) — higher, 1.77
- CACTTGGCATGGACCGGTTTTCCCGGTAATCCGTATTTGGA (site CACTTGTCTTC) — higher, 0.78
- CACTTGGCATGGACCGGTTTTCCCGGTAATCCGTATTTGGA (site CACTTTGCTTC) — lower, 0.00347
- CACTTGGCATGGACCGGTTTTCCCGGTAATCCGTATTTGGA (site CAGTTGGCTTC) — within 0.2 log units, 0.28
- CACTTGGCATGGACCGGTTTTCCCGGTAATCCGTATTTGGA (site CATTTGGCTTC) — within 0.2 log units, 0.342
- CACTTGGCATGGACCGGTTTTCCCGGTAATCCGTATTTGGA (site CCCTTGGCTTC) — within 0.2 log units, 0.304
- CACTTGGCATGGACCGGTTTTCCCGGTAATCCGTATTTGGA (site CGCTTGGCTTC) — within 0.2 log units, 0.439
- CACTTGGCATGGACCGGTTTTCCCGGTAATCCGTATTTGGA (site CTCTTGGCTTC) — lower, 0.0309
- CACTTGGCATGGACCGGTTTTCCCGGTAATCCGTATTTGGA (site GACTTGGCTTC) — lower, 0.112
- CACTTGGCATGGACCGGTTTTCCCGGTAATCCGTATTTGGA (site TACTTGGCTTC) — within 0.2 log units, 0.275
- CACTTGGCATGGACCGGTTTTCCCGGTAATCCGTATTTGGC (site CACTTGGCTAC) — lower, 0.012
- CACTTGGCATGGACCGGTTTTCCCGGTAATCCGTATTTGGC (site CACTTGGCTCC) — lower, 0.0109
- CACTTGGCATGGACCGGTTTTCCCGGTAATCCGTATTTGGC (site CACTTGGCTGC) — higher, 1.64
- CACTTGGCATGGACCGGTTTTCCCGGTAATCCGTATTTGGC (site CACTTGGCTTC) — lower, 0.166
- CACTTGGCATGGACCGGTTTTCCCGGTAATCCGTATTTGGG (site CACTTGGCTAC) — lower, 0.0307
- CACTTGGCATGGACCGGTTTTCCCGGTAATCCGTATTTGGG (site CACTTGGCTCC) — lower, 0.0801
- CACTTGGCATGGACCGGTTTTCCCGGTAATCCGTATTTGGG (site CACTTGGCTGC) — lower, 0
